Assay results taken from patent US20190054054A1, “Methods reducing or preventing oxidation of high density lipoprotein (HDL)” (Amarin Pharmaceuticals Ireland Limited, priority 2017, published 2019).

Assays:
HUVECs = experiment: NO and ONOO^− release from HUVECs treated concomitantly with agents and oxLDL (Example 11, Objective 2); type: cell-based, human; conditions: oxLDL 11 mg/dL treated 30 min with agents, each at 10 μM; cells exposed 60 min
Method: The omega-3 fatty acid, cis-5,8,11,14,17-eicosapentaenoic acid (EPA) and docosahexaenoic acid (DHA) were purchased from Sigma-Aldrich (Saint Louis, Mo.) and solubilized in redistilled ethanol to 11 mM under nitrogen atmosphere. EPA and DHA stock solutions were stored at −20° C. until use.
Human umbilical vein endothelial cells (HUVECs) were obtained from healthy, female donors and isolated into primary, proliferating cell cultures (Clonetics, San Diego, Calif.). The cells were incubated in 95% air/5% CO2 at 37° C. and passaged by an enzymatic (trypsin) procedure. The confluent cells (4 to 5×10^5 cells/35 mm dish) were plated with minimum essential medium containing 3 mM L-arginine and 0.1 mM BH4 [(6R)-5,6,7,8-tetrahydrobiopterin]. Before experimental use, the cells (from second or third passage) were rinsed twice with Tyrode-HEPES buffer with 1.8 mM CaCl2.
Venous blood was collected from healthy volunteers into vacutainer tubes containing sodium EDTA. Plasma was separated by centrifugation at 3000 g for 25 min at 4° C. and adjusted to a density of 1.020 g/mL with KBr. Triglyceride-rich lipoproteins (TGRL) and LDL fractions were isolated by sequential centrifugation at 70,000 rpm at 4° C. in a Beckman LE-80 ultracentrifuge using a Beckman 50.4Ti rotor (Beckman Coulter, Inc., Fullerton, Calif.). The TGRL fraction (with a relative density of <1.020) was aspirated from the top of the centrifugate and discarded, leaving an LDL-enriched infranate (with a relative density of 1.020-1.063). The LDL subfraction was retained for additional experimentation. Plasma and lipoprotein fractions were maintained at 4° C. and protected from excessive exposure to light. Prior to oxidation experiments, EDTA was removed from the lipoprotein fraction using PD-10 desalting columns (GE Healthcare, Piscataway N.J.). After equilibration of the column with phosphate buffered saline (PBS), 2.5 mL of the lipoprotein fraction was loaded on the column and the flow-through discarded. The lipoprotein was then eluted with 3 mL of PBS. The LDL fractions were further diluted with PBS to obtain a 100 μg/mL apoB100 concentration.
LDL underwent oxidation following the addition of 10 μM CuSO4. […] Sample TBARS concentrations were determined spectrophotometrically by measuring sample absorbances against a standard curve derived from the hydrolysis of 1,1,3,3-tetramethoxypropane. […]
The amperometric method (with a response time of 0.1 ms) provides a quantitative signal (current) that is directly proportional to changes (from basal levels) in NO or ONOO^− concentration. […] Basal NO or ONOO^− levels were measured by differential pulse voltammetry in separate experiments. […]

[1] = Glucose-induced membrane lipid peroxidation (LOOH, CHOD-iodide assay) in DLPC/cholesterol vesicles (Examples 4 and 5); type: biochemical; conditions: for inhibition of the peroxidative effects of glucose (LOOH formation) / effect on LOOH formation / lipid peroxidation (FIG. 3): 1:30 drug-to-phospholipid mole ratio; for effect on LOOH formation / lipid peroxidation (FIG. 3): glucose, 72- and 96-hour time points
Method: Vitamin E (α-tocopherol) was also purchased from Sigma-Aldrich and prepared in ethanol at 1.0 mM (e=[…] at 294 nm) just prior to experimental use. […] All test compounds were further diluted in ethanol or aqueous buffer as needed. Glucose was prepared in saline buffer (0.5 mM HEPES, 154 mM NaCl, pH 7.3) at 11.0 mM (200 mg/dL). CHOD-iodide color reagent (stock) was prepared, with slight modification, as described by from El-Saadani et al. (J. […] Samples were shell-dried under nitrogen gas and placed under vacuum for 1 h to remove residual solvent. […] Lipid suspensions were then vortexed for 3 min at ambient temperature to form MLVs. All MLV samples were subjected to time-dependent autoxidation by incubating at 37° C. in an uncovered, shaking water bath. This method allows lipid peroxidation to occur gradually without requiring the use of exogenous initiators. Small aliquots (5-100 μL) of each sample were removed, immediately following MLV preparation (0 hour) and after exposing samples to oxidative conditions for 72 or 96 hour, and combined with 1.0 mL of activated CHOD-iodide color reagent. Aliquot volume was reduced with each successive time point to ensure that spectrophotometric readings were within the optimal adsorption range. Test samples were covered and incubated in darkness at room temperature for at least 4 hr. Sample absorbances were then measured against a CHOD blank at 365 nm using a Beckman DU-640 spectrophotometer. The CHOD colorimetric assay is based on the oxidation of iodide (I^−) by lipid hydroperoxide (LOOH) to form triiodide (I3^−), the quantity of which is directly proportional to the amount of LOOH present in the lipid sample. The molar absorptivity (ε) of I3^− is 2.46×10^4 M^−1 cm^−1 at 365 nm. An experiment was conducted to compare the ability of EPA to prevent lipid hydroperoxide formation in model membranes treated with glucose to two other 20-carbon fatty acids: eicosanoic acid (“EA,” also referred to as arachidic acid, C20:0) and eicosatrienoic acid (“ETE,” C20:3, n-3). All MLV samples were subjected to time-dependent autoxidation by incubating at 37° C. in an uncovered, shaking water bath. This method allows lipid peroxidation to occur gradually without requiring the use of exogenous initiators. Small aliquots (5-100 μL) of each sample were removed, immediately following MLV preparation (0 hr) and after exposing samples to oxidative conditions for 72 or 96 hr, and combined with 1.0 mL of activated CHOD-iodide color reagent. Aliquot volume was reduced with each successive time point to ensure that spectrophotometric readings were within the optimal adsorption range. Test samples were covered and incubated in darkness at room temperature for at least 4 hr. Sample absorbances were then measured against a CHOD blank at 365 nm using a Beckman DU-640 spectrophotometer. The CHOD colorimetric assay is based on the oxidation of iodide (I^−) by lipid hydroperoxide (LOOH) to form triiodide (I3^−), the quantity of which is directly proportional to the amount of LOOH present in the lipid sample. The molar absorptivity (ε) of I3^− is 2.46×10^4 M^−1 cm^−1 at 365 nm.

For `CC/C=C\C/C=C\C/C=C\C/C=C\C/C=C\C/C=C\CCC(=O)O` [DHA, docosahexaenoic acid], the NO (HUVECs) was 362 ± 39 and the “ONOO^−” value (HUVECs) was 240 ± 27.

For `CC/C=C\C/C=C\C/C=C\C/C=C\C/C=C\CCCC(=O)O` [EPA, cis-5,8,11,14,17-eicosapentaenoic acid], the “inhibition of the peroxidative effects of glucose (LOOH formation)” value ([1]; glucose 200 mg/dL, 72 hours) was 88%, the “inhibition of the peroxidative effects of glucose (LOOH formation)” value ([1]; glucose 200 mg/dL, 96 hours) was 86% and the “effect on LOOH formation / lipid peroxidation (FIG. 3)” value [1] was “significantly inhibited LOOH formation”. For the same compound, the “membrane LOOH formation, dose dependence” value ([1]; EPA at 1.0 and 5.0 μM, glucose-treated) was “inhibit membrane LOOH formation in a dose-dependent manner”, the “LOOH formation compared to vehicle only, glucose only, glucose and EA, or glucose and ETE” value ([1]; Example 5, 72 and 96 hr) was “significantly less LOOH formation” and the “antioxidant effect, separate treatments” value ([1]; each at 1.0 μM, glucose 200 mg/dL, 96 hours) was “separate and potent antioxidant effects”. The NO (HUVECs) was 385 ± 43 and the “ONOO^−” value (HUVECs) was 232 ± 24.

For `Cc1c(C)c2c(c(C)c1O)CC[C@@](C)(CCC[C@H](C)CCC[C@H](C)CCCC(C)C)O2` [vitamin E, α-tocopherol], the “effect on LOOH formation / lipid peroxidation (FIG. 3)” value [1] was “no significant effect on lipid peroxidation”.
